Measured values: BindingDB's records for doi:10.1021/jm0303857 (Johnson & Johnson Pharmaceutical, 2005)
Values joined by “and” are separate entries in the source; they are usually repeats but may differ in a detail not shown here. Identical values can stand only once.

Experiments:
[1] = biological target: Prothrombin (Homo sapiens, UniProt P00734); experiment: Enzyme Inhibition Assay
Protocol: Thrombin-catalyzed hydrolysis rates were measured spectrophotometrically using human alpha-thrombin, a chromogenic substrate in aqueous buffer, and a microplate reader. […] The IC50 values were determined by fixing the enzyme and substrate concentrations and varying the inhibitor concentration. Ki values were determined by fixing the enzyme and inhibitor concentrations and varying the substrate concentration. Michaelis-Menton kinetics was applied to the initial reaction slopes using the program K.Cat (Bio Metallics Inc.).

[2] = biological target: T1, Serine protease 1 (Bos taurus, UniProt P00760); experiment: Enzyme Inhibition Assay
T1 sequence (P00760 whole entry): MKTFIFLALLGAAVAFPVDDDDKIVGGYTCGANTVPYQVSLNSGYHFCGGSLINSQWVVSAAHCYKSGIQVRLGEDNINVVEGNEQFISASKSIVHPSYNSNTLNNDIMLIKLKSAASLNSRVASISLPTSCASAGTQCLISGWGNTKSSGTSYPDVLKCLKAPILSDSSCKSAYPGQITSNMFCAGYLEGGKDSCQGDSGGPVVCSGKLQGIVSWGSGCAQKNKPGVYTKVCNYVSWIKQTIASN

Row | IC50 [1] | Ki [2] | Ki [1] | Structure (SMILES) | also measured
1 | 13000 nM |  |  | CN[C@H](Cc1ccccc1)C(=O)N1CCC[C@H]1C(=O)N[C@@H](CCCNC(=N)N)C(=O)c1cc2ccccc2s1 | 
2 |  | 2.7 nM |  | CN[C@H](Cc1ccccc1)C(=O)N1CCC[C@H]1C(=O)N[C@@H](CCCN=C(N)N)C(=O)c1nc2ccc(C(=O)O)cc2s1 [2-[(2S)-5-carbamimidamido-2-{[(2S)-1-[(2R)-2-(methylamino)-3-phenylpropanoyl]pyrrolidin-2-yl]formamido}pentanoyl]-1,3-benzothiazole-6-carboxylic acid] | 
3 |  | 1.8 nM |  | NC(N)=NCCCC(NC(=O)[C@@H]1CCCN1C(=O)C(N)(c1ccccc1)c1ccccc1)C(=O)c1nc2ccccc2s1 (stereo partly drawn) [(2S)-1-(2-amino-2,2-diphenylacetyl)-N-[1-(1,3-benzothiazol-2-yl)-5-carbamimidamido-1-oxopentan-2-yl]pyrrolidine-2-carboxamide] | IC50 ([1]; pH 7.4, 37 °C): 15 nM; Ki ([1]; pH 7.4, 37 °C): 2.1 nM
4 |  | 3.9 nM |  | CC(N)(Cc1ccccc1)C(=O)N1CCC[C@H]1C(=O)NC(CCCN=C(N)N)C(=O)c1nc2ccccc2s1 (stereo partly drawn) [(2S)-1-(2-amino-2-benzylpropanoyl)-N-[1-(1,3-benzothiazol-2-yl)-5-carbamimidamido-1-oxopentan-2-yl]pyrrolidine-2-carboxamide] | 
5 |  |  |  | NC(N)=NCCCC(NC(=O)[C@@H]1CCCN1C(=O)[C@@H](N)Cc1ccccc1)C(=O)c1nc2ccccc2s1 (stereo partly drawn) [(2S)-1-[(2S)-2-amino-3-phenylpropanoyl]-N-[1-(1,3-benzothiazol-2-yl)-5-carbamimidamido-1-oxopentan-2-yl]pyrrolidine-2-carboxamide] | IC50 [2]: 5.8 nM
6 | 48000 nM and 17000 nM | 180000 nM and 250000 nM | 5300 nM and 1600 nM | CN[C@H](Cc1ccccc1)C(=O)N1CCC[C@H]1C(=O)NC(CCCN=C(N)N)C(O)c1nc2ccccc2s1 (stereo partly drawn) [(2S)-N-[1-(1,3-benzothiazol-2-yl)-5-carbamimidamido-1-hydroxypentan-2-yl]-1-[(2R)-2-(methylamino)-3-phenylpropanoyl]pyrrolidine-2-carboxamide] | 
7 |  |  |  | CN[C@@H](C(=O)N1CCC[C@H]1C(=O)NC(CCCN=C(N)N)C(=O)c1nc2ccccc2s1)c1ccccc1 (stereo partly drawn) [(2S)-N-[1-(1,3-benzothiazol-2-yl)-5-carbamimidamido-1-oxopentan-2-yl]-1-[(2R)-2-(methylamino)-2-phenylacetyl]pyrrolidine-2-carboxamide] | IC50 [2]: 32 nM
8 |  |  |  | CN[C@H](Cc1ccccc1)C(=O)N1CCC[C@H]1C(=O)NC(CCCN=C(N)N)C(=O)c1nc2ccccc2s1 (stereo partly drawn) [(2S)-N-[1-(1,3-benzothiazol-2-yl)-5-carbamimidamido-1-oxopentan-2-yl]-1-[(2R)-2-(methylamino)-3-phenylpropanoyl]pyrrolidine-2-carboxamide] | IC50 ([1]; pH 7.4, 37 °C): 29 nM; Ki ([1]; pH 7.4, 37 °C): 0.2 nM
9 |  | 3.3 nM |  | CN[C@H](Cc1ccc(F)cc1)C(=O)N1CCC[C@H]1C(=O)NC(CCCN=C(N)N)C(=O)c1nc2ccccc2s1 (stereo partly drawn) [(2S)-N-[1-(1,3-benzothiazol-2-yl)-5-carbamimidamido-1-oxopentan-2-yl]-1-[(2R)-3-(4-fluorophenyl)-2-(methylamino)propanoyl]pyrrolidine-2-carboxamide] | 
10 | 95 nM | 2 nM | 3.1 nM | NC(N)=NCCCC(NC(=O)[C@@H]1CCCN1C(=O)C1(O)c2ccccc2-c2ccccc21)C(=O)c1nc2ccccc2s1 (stereo partly drawn) [(2S)-N-[1-(1,3-benzothiazol-2-yl)-5-carbamimidamido-1-oxopentan-2-yl]-1-[(9-hydroxy-9H-fluoren-9-yl)carbonyl]pyrrolidine-2-carboxamide] | 
11 | 1500 nM | 5800 nM | 200 nM | CN[C@H](Cc1ccccc1)C(=O)N1CCC[C@H]1C(=O)NC(CCCN=C(N)N)C(=O)c1nccn1C (stereo partly drawn) [(2S)-N-[5-carbamimidamido-1-(1-methyl-1H-imidazol-2-yl)-1-oxopentan-2-yl]-1-[(2R)-2-(methylamino)-3-phenylpropanoyl]pyrrolidine-2-carboxamide] | 
12 | 19 nM | 1.2 nM | 2.1 nM | CN[C@H](Cc1ccccc1)C(=O)N1CCC[C@H]1C(=O)NC(CCCN=C(N)N)C(=O)c1nccs1 (stereo partly drawn) [(2S)-N-[5-carbamimidamido-1-oxo-1-(1,3-thiazol-2-yl)pentan-2-yl]-1-[(2R)-2-(methylamino)-3-phenylpropanoyl]pyrrolidine-2-carboxamide] | 
13 | 930 nM | 73 nM | 85 nM | CN[C@H](Cc1ccccc1)C(=O)N1CCC[C@H]1C(=O)NC(CCCN=C(N)N)C(=O)c1ccccn1 (stereo partly drawn) [(2S)-N-[5-carbamimidamido-1-oxo-1-(pyridin-2-yl)pentan-2-yl]-1-[(2R)-2-(methylamino)-3-phenylpropanoyl]pyrrolidine-2-carboxamide] | 
14 | > 100000 nM |  |  | CN[C@H](Cc1ccccc1)C(=O)N1CCC[C@H]1C(=O)N[C@H](CC(=O)c1nc2ccccc2s1)C1CCC(N)CC1 (stereo partly drawn) [(2S)-N-[(1R)-1-(4-aminocyclohexyl)-3-(1,3-benzothiazol-2-yl)-3-oxopropyl]-1-[(2R)-2-(methylamino)-3-phenylpropanoyl]pyrrolidine-2-carboxamide] | IC50 [2]: 58000 nM
15 | > 1000 nM |  |  | CN[C@H](Cc1ccccc1)C(=O)N1CCC[C@H]1C(=O)N[C@@H](C(=O)c1nc2ccccc2s1)C1CCC(CN)CC1 (stereo partly drawn) [(2S)-N-[(1R)-1-[4-(aminomethyl)cyclohexyl]-2-(1,3-benzothiazol-2-yl)-2-oxoethyl]-1-[(2R)-2-(methylamino)-3-phenylpropanoyl]pyrrolidine-2-carboxamide] | 
16 | > 100000 nM |  |  | CN[C@H](Cc1ccccc1)C(=O)N1CCC[C@H]1C(=O)N[C@@H](CC(=O)c1nc2ccccc2s1)C1CCC(N)CC1 (stereo partly drawn) [(2S)-N-[(1S)-1-(4-aminocyclohexyl)-3-(1,3-benzothiazol-2-yl)-3-oxopropyl]-1-[(2R)-2-(methylamino)-3-phenylpropanoyl]pyrrolidine-2-carboxamide] | IC50 [2]: 22000 nM
17 | 17000 nM | 54 nM | 920 nM | CN[C@H](Cc1ccccc1)C(=O)N1CCC[C@H]1C(=O)N[C@H](C(=O)c1nc2ccccc2s1)C1CCC(CN)CC1 (stereo partly drawn) [(2S)-N-[(1S)-1-[4-(aminomethyl)cyclohexyl]-2-(1,3-benzothiazol-2-yl)-2-oxoethyl]-1-[(2R)-2-(methylamino)-3-phenylpropanoyl]pyrrolidine-2-carboxamide] | 
18 | > 1000 nM |  |  | CNCCCC[C@@H](NC(=O)[C@@H]1CCCN1C(=O)[C@@H](Cc1ccccc1)NC)C(=O)c1nc2ccccc2s1 [(2S)-N-[(2R)-1-(1,3-benzothiazol-2-yl)-6-(methylamino)-1-oxohexan-2-yl]-1-[(2R)-2-(methylamino)-3-phenylpropanoyl]pyrrolidine-2-carboxamide] | 
19 | > 1000 nM |  |  | CN[C@H](Cc1ccccc1)C(=O)N1CCC[C@H]1C(=O)N[C@@H](Cc1ccccc1)C(=O)c1nc2ccccc2s1 [(2S)-N-[(2S)-1-(1,3-benzothiazol-2-yl)-1-oxo-3-phenylpropan-2-yl]-1-[(2R)-2-(methylamino)-3-phenylpropanoyl]pyrrolidine-2-carboxamide] | 
20 | > 1000 nM |  |  | CN[C@H](Cc1ccccc1)C(=O)N1CCC[C@H]1C(=O)N[C@@H](Cc1ccc(C(=N)N)cc1)C(=O)c1nc2ccccc2s1 [(2S)-N-[(2S)-1-(1,3-benzothiazol-2-yl)-3-(4-carbamimidoylphenyl)-1-oxopropan-2-yl]-1-[(2R)-2-(methylamino)-3-phenylpropanoyl]pyrrolidine-2-carboxamide] | 
21 |  |  |  | CN[C@@H](C(=O)N1CCC[C@H]1C(=O)N[C@@H](CCCN=C(N)N)C(=O)c1nc2ccccc2s1)C(c1ccccc1)c1ccccc1 [(2S)-N-[(2S)-1-(1,3-benzothiazol-2-yl)-5-carbamimidamido-1-oxopentan-2-yl]-1-[(2R)-2-(methylamino)-3,3-diphenylpropanoyl]pyrrolidine-2-carboxamide] | IC50 [2]: 30 nM
22 | > 1000 nM |  |  | CNCCCC[C@H](NC(=O)[C@@H]1CCCN1C(=O)[C@@H](Cc1ccccc1)NC)C(=O)c1nc2ccccc2s1 [(2S)-N-[(2S)-1-(1,3-benzothiazol-2-yl)-6-(methylamino)-1-oxohexan-2-yl]-1-[(2R)-2-(methylamino)-3-phenylpropanoyl]pyrrolidine-2-carboxamide] | 
23 | 460 nM | 87 nM | 53 nM | CCS(=O)(=O)N[C@H](Cc1ccccc1)C(=O)N1CCC[C@H]1C(=O)N[C@@H](C(=O)c1nc2ccccc2s1)C1CCC(N)CC1 (stereo partly drawn) [The relative stereochemistry of the cyclohexyl ring is trans] | 
24 | 1900 nM | 330 nM | 110 nM | CN[C@H](Cc1ccccc1)C(=O)N1CCC[C@H]1C(=O)N[C@@H](C(=O)c1nc2ccccc2s1)C1CCC(N)CC1 (stereo partly drawn) [The relative stereochemistry of the cyclohexyl ring is trans] | 

Row | Structure (SMILES) | IC50 [1] | Ki [2] | Ki [1] | also measured
25 | N=C(N)NCCCCC(=O)c1nc2ccccc2s1 [3-[5-(1,3-benzothiazol-2-yl)-5-oxopentyl]guanidine] | > 300000 nM | > 100000 nM |  | 
26 | CN[C@@H](C(=O)N1CCC[C@H]1C(=O)N[C@@H](CCCN=C(N)N)C(=O)c1nc2ccccc2s1)C1CCCCC1 [(2S)-N-[(2S)-1-(1,3-benzothiazol-2-yl)-5-carbamimidamido-1-oxopentan-2-yl]-1-[(2R)-2-cyclohexyl-2-(methylamino)acetyl]pyrrolidine-2-carboxamide] |  | 1.2 nM |  | IC50 ([1]; pH 7.4, 37 °C): 5.3 nM; Ki ([1]; pH 7.4, 37 °C): 0.018 nM
